The results in this text go back to patent US9278962B2 (Cytokinetics, Inc., priority 2011, dated 2016).

The subject of one test is rabbit skeletal myofibrils (approximately 90% fast fibers). As to the kind of experiment: Activation of fast skeletal myofibrils (PUMA coupled-enzyme ATPase assay, AC1.4). The class given is biochemical. The conditions noted are these: Table 2; concentration at which the compound increased enzymatic activity by 40%; calcium at pCa25.
As for `COC(=O)N1CCN(CCc2nsc(NCC(C)(C)c3ccc(F)cc3)n2)CC1` [methyl 4-[2-(5-{[2-(4-fluorophenyl)-2-methylpropyl]amino}-1,2,4-thiadiazol-3-yl)ethyl]piperazinecarboxylate], the “Mean AC1.4” value is “D (D=>20 uM)”.
The same measure, in the same setting: in the case of `COC(=O)N1CCN(Cc2nsc(NCC(C)(C)c3ccc(F)cc3)n2)CC1` [methyl 4-[(5-{[2-(4-fluorophenyl)-2-methylpropyl]amino}-1,2,4-thiadiazol-3-yl)methyl]piperazinecarboxylate] it was “C (C=10-20 uM)”.
The same measure, in the same setting: to `CC(C)(C)OC(=O)N1CCN(Cc2nsc(NCC(C)(C)c3ccc(F)cc3)n2)CC1` [tert-butyl 4-[(5-{[2-(4-fluorophenyl)-2-methylpropyl]amino}-1,2,4-thiadiazol-3-yl)methyl]piperazinecarboxylate] belongs “D (D=>20 uM)”.
With `CN(C)CCNc1nsc(NCC(C)(C)c2ccc(F)cc2)n1` [{2-[(5-{[2-(4-fluorophenyl)-2-methylpropyl]amino}(1,2,4-thiadiazol-3-yl))amino]ethyl}dimethylamine], the “Mean AC1.4” value is given as “D (D=>20 uM)”.
Take `COc1cccc(Cc2nsc(NCCc3nc(C)cs3)n2)c1` [{3-[(3-methoxyphenyl)methyl](1,2,4-thiadiazol-5-yl)}[2-(4-methyl(1,3-thiazol-2-yl))ethyl]amine]: the “Mean AC1.4” value is “D (D=>20 uM)”.
Consider `COc1cccc(Cc2nsc(NCCc3cccc(C(F)(F)F)c3)n2)c1` [{3-[(3-methoxyphenyl)methyl](1,2,4-thiadiazol-5-yl)}{2-[3-(trifluoromethyl)phenyl]ethyl}amine], for which the “Mean AC1.4” value is recorded as “D (D=>20 uM)”.
As to `Fc1ccc(Cc2nsc(NCCc3ccccn3)n2)cc1` [{3-[(4-fluorophenyl)methyl](1,2,4-thiadiazol-5-yl)}(2-(2-pyridyl)ethyl)amine], the “Mean AC1.4” value is recorded as “D (D=>20 uM)”.
Consider `Fc1ccc(Cc2nsc(NCCc3cccnc3)n2)cc1` [{3-[(4-fluorophenyl)methyl](1,2,4-thiadiazol-5-yl)}(2-(3-pyridyl)ethyl)amine], for which the “Mean AC1.4” value is recorded as “D (D=>20 uM)”.
For the molecule `Fc1ccc(Cc2nsc(NCCc3ccncc3)n2)cc1` [{3-[(4-fluorophenyl)methyl](1,2,4-thiadiazol-5-yl)}(2-(4-pyridyl)ethyl)amine], the “Mean AC1.4” value was “D (D=>20 uM)”.
Same read-out and setting: in the case of `Fc1ccc(Cc2nsc(NCCc3ccccc3)n2)cc1` [{3-[(4-fluorophenyl)methyl](1,2,4-thiadiazol-5-yl)}(2-phenylethyl)amine] it was “D (D=>20 uM)”; in that of `CC(C)CCNc1nc(Cc2ccc(F)cc2)ns1` [{3-[(4-fluorophenyl)methyl](1,2,4-thiadiazol-5-yl)}(3-methylbutyl)amine], “D (D=>20 uM)”.
Turning to `COc1ccc(CCNc2nc(Cc3ccc(F)cc3)ns2)cc1` [{3-[(4-fluorophenyl)methyl](1,2,4-thiadiazol-5-yl)}[2-(4-methoxyphenyl)ethyl]amine], the “Mean AC1.4” value is given as “D (D=>20 uM)”.
Same read-out and setting: in the case of `Cc1csc(CCNc2nc(Cc3ccc(F)cc3)ns2)n1` [{3-[(4-fluorophenyl)methyl](1,2,4-thiadiazol-5-yl)}[2-(4-methyl(1,3-thiazol-2-yl))ethyl]amine] it was “D (D=>20 uM)”; in that of `CC(=O)OCC(=O)NCCCc1nsc(NCC(C)(C)c2ccc(F)cc2)n1` [{N-[3-(5-{[2-(4-fluorophenyl)-2-methylpropyl]amino}-1,2,4-thiadiazol-3-yl)propyl]carbamoyl}methyl acetate], “C (C=10-20 uM)”; in that of `Fc1cccnc1C1(CNc2nc(-c3ccccc3)ns2)CCC1` [{[(3-fluoro(2-pyridyl))cyclobutyl]methyl}(3-phenyl(1,2,4-thiadiazol-5-yl))amine], “B (B=1-10 uM)”.

Still in this test, the particulars now being: Table 3; concentration at which the compound increased enzymatic activity by 40%; calcium at pCa25.
Turning to `COC(=O)c1ccc(F)c(-c2nnc(NC[C@]3(c4ncccc4F)C[C@H](F)C3)s2)c1` [methyl 4-fluoro-3-(5-((3-fluoro-1-(3-fluoropyridin-2-yl)cyclobutyl)methylamino)-1,3,4-thiadiazol-2-yl)benzoate], the “Mean AC1.4” value is recorded as “B (B=1-10 uM)”.
